Measured values reported in the supplement of paper PMC10307832.

How the values were obtained:
Experiment in all cases: relative viability (nuclei count vs DMSO), 5 days (fraction); higher = more cells survive
Seliciclib + Alpelisib = compound: CC[C@H](CO)Nc1nc(NCc2ccccc2)c2ncn(C(C)C)c2n1 [Seliciclib] + Cc1nc(NC(=O)N2CCC[C@H]2C(N)=O)sc1-c1ccnc(C(C)(C)C(F)(F)F)c1 [Alpelisib] (partner 2 µM)
Method in brief: (§1)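 Cells from lung cancer lines were seeded into 1536-well plates and, one day later, dosed by pin tool. Treatments were either a single drug or a fixed dose of an anchor drug with five library-drug doses (not always all listed) in √10 steps. After 5 days, nuclei were stained in a one-step fixation (final 0.05% Triton X-100, 1% formaldehyde, 1 ug/ml Hoechst) and counted on 4× images, and relative viability is the treated-to-vehicle nuclei ratio, as the median of duplicate plates.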

Seliciclib + Palbociclib = compound: CC[C@H](CO)Nc1nc(NCc2ccccc2)c2ncn(C(C)C)c2n1 [Seliciclib] + CC(=O)c1c(C)c2cnc(Nc3ccc(N4CCNCC4)cn3)nc2n(C2CCCC2)c1=O [Palbociclib] (partner 0.5 µM)
Method in brief: as §1

Seliciclib + Bortezomib = compound: CC[C@H](CO)Nc1nc(NCc2ccccc2)c2ncn(C(C)C)c2n1 [Seliciclib] + CC(C)C[C@H](NC(=O)[C@H](Cc1ccccc1)NC(=O)c1cnccn1)B(O)O [Bortezomib] (partner 0.002 µM)
Method in brief: as §1

Seliciclib + Dasatinib = compound: CC[C@H](CO)Nc1nc(NCc2ccccc2)c2ncn(C(C)C)c2n1 [Seliciclib] + Cc1nc(Nc2ncc(C(=O)Nc3c(C)cccc3Cl)s2)cc(N2CCN(CCO)CC2)n1 [Dasatinib] (partner 0.075 µM)
Method in brief: as §1

Cell Line	relative viability (Seliciclib + Alpelisib; first compound 0.08 µM)	relative viability (Seliciclib + Alpelisib; first compound 0.253 µM)	relative viability (Seliciclib + Alpelisib; first compound 0.8 µM)	relative viability (Seliciclib + Alpelisib; first compound 2.53 µM)	relative viability (Seliciclib + Alpelisib; first compound 8 µM)	relative viability (Seliciclib + Palbociclib; first compound 0.08 µM)	relative viability (Seliciclib + Palbociclib; first compound 0.253 µM)	relative viability (Seliciclib + Palbociclib; first compound 0.8 µM)	relative viability (Seliciclib + Palbociclib; first compound 2.53 µM)	relative viability (Seliciclib + Palbociclib; first compound 8 µM)	relative viability (Seliciclib + Bortezomib; first compound 0.08 µM)	relative viability (Seliciclib + Bortezomib; first compound 0.253 µM)	relative viability (Seliciclib + Bortezomib; first compound 0.8 µM)	relative viability (Seliciclib + Bortezomib; first compound 2.53 µM)	relative viability (Seliciclib + Bortezomib; first compound 8 µM)	relative viability (Seliciclib + Dasatinib; first compound 0.08 µM)	relative viability (Seliciclib + Dasatinib; first compound 0.253 µM)	relative viability (Seliciclib + Dasatinib; first compound 0.8 µM)	relative viability (Seliciclib + Dasatinib; first compound 2.53 µM)	relative viability (Seliciclib + Dasatinib; first compound 8 µM)
HCC-15	0.956	0.954	0.846	0.902	0.712	0.846	0.782	0.666	0.726	0.493	1.05	1.1	0.898	0.966	0.826	0.645	0.633	0.461	0.512	0.448
PC-3 [JPC-3]	1.02	1.07	0.968	0.997	0.904	0.477	0.615	0.543	0.498	0.476	0.895	0.911	0.738	0.695	0.742	1.04	1	0.982	0.936	0.946
NCI-H1993	0.728	0.708	0.716	0.688	0.669	0.699	0.567	0.533	0.547	0.423	1.12	0.878	0.936	0.784	0.924	0.589	0.478	0.521	0.508	0.435
NCI-H1915	1.05	1.1	1.04	1.04	0.875	0.522	0.545	0.449	0.457	0.315	0.961	1.05	0.951	0.987	0.743	0.354	0.303	0.277	0.288	0.283
RERF-LC-KJ	0.745	0.761	0.814	0.973	0.792	1	0.925	1.03	1.07	0.908	1.04	1.02	1.09	1.14	1.07	0.908	0.841	0.902	0.627	0.617
LOU-NH91	0.687	0.689	0.661	0.653	0.515		0.56	0.513	0.492	0.466	0.5	0.519	0.518	0.408	0.399	0.493	0.515	0.535	0.413	0.427
NCI-H2347	1.05	1.04	0.757	1.03	0.805	0.44	0.439	0.404	0.406	0.433	1.22	0.927	0.908		0.847	0.323	0.35	0.209	0.248	0.302
NCI-H2126	0.681	0.698	0.753	0.749	0.673	0.345	0.332	0.358	0.315	0.338	1.12	1.14	1.07	0.957	1.04	0.671	0.598	0.557	0.334	0.501
HCC-827	1.01	1.01	1	1.04	0.784	0.486	0.493	0.456	0.39	0.231	1.08	1.03	1.05	1.04	0.881	0.359	0.298	0.258	0.324	0.236
NCI-H3122	0.762	0.763	0.753	0.765	0.777	0.179	0.135	0.172	0.172	0.182	1.03	1.04	0.995	0.973	0.967	0.719		0.787	0.679	0.812
HOP-62	1.03	0.811	0.942	1.05	0.829	0.463	0.398	0.397	0.366	0.308	0.837	0.754	0.684	0.868	0.331	0.661	0.58	0.578	0.603	0.653
